{"source": "paper PMC7434893", "about": "(British Journal of Cancer, 2020)", "key": {"HepG2": {"system": "HepG2", "experiment": "8-day growth inhibition", "format": "cell-based", "conditions": "HCC, HepG2, 8-day assay"}, "HT": {"system": "HT", "experiment": "8-day growth inhibition", "format": "cell-based", "conditions": "DLBCL (GC), 8-day assay"}, "[1]": {"system": "human colon cancer SW480 cells", "conditions": "cited from earlier work"}, "SNU-182": {"system": "SNU-182", "experiment": "8-day growth inhibition", "format": "cell-based", "conditions": "HCC, SNU-182, 8-day assay"}, "NCI-H69": {"system": "NCI-H69", "experiment": "8-day growth inhibition", "format": "cell-based", "conditions": "SCLC, NCI-H69, 8-day assay"}, "K562": {"system": "K562", "experiment": "8-day growth inhibition", "format": "cell-based", "conditions": "Erythroleukemia from CML patient, K562, 8-day assay"}, "HCT-15": {"system": "HCT-15", "experiment": "8-day growth inhibition", "format": "cell-based", "conditions": "Colon, HCT-15, 8-day assay"}, "Hs578T": {"system": "Hs578T", "experiment": "8-day growth inhibition", "format": "cell-based", "conditions": "Breast, 8-day assay"}, "MDA-MB-231": {"system": "MDA-MB-231", "experiment": "8-day growth inhibition", "format": "cell-based", "conditions": "Breast, MDA-MB-231, 8-day assay"}, "DB": {"system": "DB", "experiment": "8-day growth inhibition", "format": "cell-based", "conditions": "DLBCL (GC), 8-day assay"}, "ARH-77": {"system": "ARH-77", "experiment": "8-day growth inhibition", "format": "cell-based", "conditions": "Myeloma, ARH-77, 8-day assay"}, "DU145": {"system": "DU145", "experiment": "8-day growth inhibition", "format": "cell-based", "conditions": "Prostate, DU145, 8-day assay"}, "AN3 CA": {"system": "AN3 CA", "experiment": "8-day growth inhibition", "format": "cell-based", "conditions": "Endometrial, 8-day assay"}, "NCI-H211": {"system": "NCI-H211", "experiment": "8-day growth inhibition", "format": "cell-based", "conditions": "SCLC, NCI-H211, 8-day assay"}, "HEC-59": {"system": "HEC-59", "experiment": "8-day growth inhibition", "format": "cell-based", "conditions": "Endometrial, HEC-59, 8-day assay"}, "HEC-1A": {"system": "HEC-1A", "experiment": "8-day growth inhibition", "format": "cell-based", "conditions": "Endometrial, 8-day assay"}, "IM-9": {"system": "IM-9", "experiment": "8-day growth inhibition", "format": "cell-based", "conditions": "B lymphoblast, IM-9, 8-day assay"}, "PARP2": {"system": "PARP2", "conditions": "read-out: IC50, enzymatic activity of PARP2; cited from earlier work"}, "JVM-13": {"system": "JVM-13", "experiment": "8-day growth inhibition", "format": "cell-based", "conditions": "MCL, JVM-13, 8-day assay"}, "HEC-1": {"system": "HEC-1", "experiment": "8-day growth inhibition", "format": "cell-based", "conditions": "Endometrial, HEC-1, 8-day assay"}, "ECC-1": {"system": "ECC-1", "experiment": "8-day growth inhibition", "format": "cell-based", "conditions": "Endometrial, ECC-1, 8-day assay"}, "NCI-H209": {"system": "NCI-H209", "experiment": "8-day growth inhibition", "format": "cell-based", "conditions": "SCLC, NCI-H209, 8-day assay"}, "sVEGFR2": {"system": "sVEGFR2", "experiment": "Serum biomarker analysis, sVEGFR2", "format": "in vivo, human", "conditions": "data not shown", "experimental": "Two pre-dose, multiple post-dose and off-treatment time points were included. Serum samples were tested for concentrations of soluble vascular endothelial growth factor receptor (VEGFR)2, VEGFR3 and soluble interleukin-2 receptor α (sIL-2Rα/CD25), using the bead-based Human Soluble Cytokine Receptor Panel assay kit. The two baseline samples (days −3 and −2 prior to dosing) were averaged, and the mean was used to calculate percent change at each of the post-dosing time points."}}}
{"smiles": "O=c1[nH]nc2c3c(cccc13)N=C(CN1Cc3ccccc3C1)N2", "note": "[E7449]", "values": [{"measurement": "IC50", "setting": "HepG2", "value": 3.8, "unit": "µM"}, {"measurement": "IC50", "setting": "HT", "value": 0.66, "unit": "µM"}, {"measurement": "Active and total β-catenin", "setting": "[1]", "value": "concomitant reduction"}, {"measurement": "Axin2 levels", "setting": "[1]", "value": "significant increase"}, {"measurement": "IC50", "setting": "SNU-182", "value": 5.4, "unit": "µM"}, {"measurement": "IC50", "setting": "NCI-H69", "value": 1.33, "unit": "µM"}, {"measurement": "IC50", "setting": "K562", "value": 4.3, "unit": "µM"}, {"measurement": "IC50", "setting": "HCT-15", "value": 2.2, "unit": "µM"}, {"measurement": "IC50", "setting": "Hs578T", "value": 9.6, "unit": "µM"}, {"measurement": "IC50", "setting": "MDA-MB-231", "value": 25, "unit": "µM"}, {"measurement": "IC50", "setting": "DB", "value": 1.6, "unit": "µM"}, {"measurement": "IC50", "setting": "ARH-77", "value": 3.2, "unit": "µM"}, {"measurement": "IC50", "setting": "DU145", "value": 1.8, "unit": "µM"}, {"measurement": "IC50", "setting": "AN3 CA", "value": 1.49, "unit": "µM"}, {"measurement": "IC50", "setting": "NCI-H211", "value": 0.48, "unit": "µM"}, {"measurement": "IC50", "setting": "HEC-59", "value": 2.44, "unit": "µM"}, {"measurement": "IC50", "setting": "HEC-1A", "value": 2.96, "unit": "µM"}, {"measurement": "IC50", "setting": "IM-9", "value": 2.1, "unit": "µM"}, {"measurement": "IC50", "setting": "PARP2", "value": "[…]"}, {"measurement": "IC50", "setting": "JVM-13", "value": 7.3, "unit": "µM"}, {"measurement": "IC50", "setting": "HEC-1", "value": 1.28, "unit": "µM"}, {"measurement": "IC50", "setting": "ECC-1", "value": 0.68, "unit": "µM"}, {"measurement": "IC50", "setting": "NCI-H209", "value": 0.62, "unit": "µM"}, {"measurement": "Change in serum concentration of sVEGFR2 from baseline", "setting": "sVEGFR2", "value": "[…]"}]}
